This is an account of results in US4977275A, “Pyrrole derivatives” (SS Pharmaceutical Co., Ltd., priority 1988, dated 1990).

Values after ≈ are worked out from the molar mass of the structure shown. A value given as a limit tells only on which side of the number the result lay.

Type in all cases: cell-based
Test [1] concerns Bacillus subtilis ATCC 6633. Briefly: antimicrobial activity, minimum inhibitory concentration. To be noted: ATCC6633.
Test [2] relates to Staphylococcus aureus FDA 209P. Described as above. To be noted: FDA209P.
In test [3] the test system is Candida albicans NHL 4019. The description is as above. To be noted: NHL4019.
In another test the test system is Candida albicans Yu-1200. The description is as above. To be noted: YU1200.
For test [4], the system named is Saccharomyces cerevisiae ATCC 9763. The description is as above. To be noted: ATCC9763.
For test [5], the system named is Helminthosporium sesamum IAM 5012. Described as above. To be noted: IAM5012.
Test [6] has as its system Piricularia oryzae IAM 5016. The test is described as follows: microbe, parasite or virus in culture. To be noted: read-out: Minimum inhibitory concentration (MIC).
In test [7] the test system is Debaryomyces kloeckeri IFO 0015. The test is described as follows: antimicrobial activity, minimum inhibitory concentration. To be noted: IFO0015.

On to `O=C(CCCl)Oc1ccccc1C(=O)c1[nH]c(Cl)c(Cl)c1I` [Compound 9, 2-[2-(3-Chloropropionyloxy)benzoyl]-3-iodo-4,5-dichloropyrrole], for which the MIC in test [1] was below 0.2 µg/mL; in test [2] it was below 0.2 µg/mL; in test [3], 6.25 µg/mL (≈ 13.2 µM); in the test on Candida albicans Yu-1200, 6.25 µg/mL (≈ 13.2 µM); in test [4] it was 12.5 µg/mL (≈ 26.5 µM); in test [5], 6.25 µg/mL (≈ 13.2 µM). In addition, the MIC in test [6] is below 0.2 µg/mL; in test [7] it was 12.5 µg/mL (≈ 26.5 µM).

On to `CCCCCCC(=O)Oc1ccccc1C(=O)c1[nH]c(Cl)c(Cl)c1I` [Compound 6, 2-(2-heptanoyloxybenzoyl)-3-iodo-4,5-dichloropyrrole], for which the MIC in test [1] was determined as 0.39 µg/mL (≈ 0.789 µM); in test [2], 0.39 µg/mL (≈ 0.789 µM); in test [3], 12.5 µg/mL (≈ 25.3 µM); against Candida albicans Yu-1200, 12.5 µg/mL (≈ 25.3 µM); in test [4], 12.5 µg/mL (≈ 25.3 µM); in test [5], 6.25 µg/mL (≈ 12.6 µM). The MIC is below 0.2 µg/mL in test [6] and 12.5 µg/mL (≈ 25.3 µM) in test [7].

For the compound `CCCCCCC(=O)Oc1ccc(F)cc1C(=O)c1[nH]c(Br)c(Br)c1Br` [Compound 2, 2-(2-Heptanoyloxy-5-fluorobenzoyl)-3,4,5-tribromopyrrole], the MIC is below 0.2 µg/mL in test [1]; below 0.2 µg/mL in test [2]; 12.5 µg/mL (≈ 22.6 µM) in test [3]; 12.5 µg/mL (≈ 22.6 µM) in the test on Candida albicans Yu-1200; 12.5 µg/mL (≈ 22.6 µM) in test [4]; 6.25 µg/mL (≈ 11.3 µM) in test [5]. The MIC was below 0.2 µg/mL in test [6] and 12.5 µg/mL (≈ 22.6 µM) in test [7].
